Laboratory results from patent US9551021B2, “Methods and compositions for detecting pathogenic bacteria” (Washington University, priority 2012, dated 2017).
Entries after “also recorded” stand apart in the source; their conditions may differ.

What was measured:
UT189 = test: Copper mediated cytotoxicity assay, wild type strain; type: cell-based, E. coli; details: for effect on viability: 20 μM alone, no copper; for effect on copper (II) sulfate toxicity: exogenous addition of 20 μM
Experimental: (§1) Following overnight growth in 50 mL M63 minimal media, bacterial cultures were washed twice in phosphate buffered saline (PBS, Sigma) and centrifuged at 6,500 rpm. Washed cultures were resuspended in fresh M63 minimal media, and normalized to 10^8 CFU/mL for subsequent treatment. Normalized cultures were treated with varying concentrations of copper (II) sulfate and test agent in 2 mL reaction volumes in 6-well tissue culture plates. Samples were incubated for 20 hours at 37° C. with shaking. Bacterial viability was reported as the number of colony forming units per milliliter of the reaction volume post-treatment (CFU/mL).

[1] = Free copper (I) determination with bathocuproine; details: for reduction of copper (II) to copper (I): 20 μM reductant, 17.5 μM copper (II) sulfate
Experimental: Free copper (I) was determined spectrophotometrically using the copper (I) indicator bathocuproine. Briefly, 25 μM bathocuproine, 25 μM apo-yersiniabactin, and 17.5 μM copper (II) sulfate, were used in combination in order-of-addition experiments, as well as alone as controls in PBS. Either 20 μM enterobactin (Sigma) or its catecholate moiety, 2,3-dihydroxybenzoic acid (DHB) were added as bioreductants. Following a 30 minute room temperature incubation, 25 μM bathocuproine was added and copper (I) levels were determined by measuring the visible absorbance at 480 nm of the cuprous-bathocuproine complex. Final concentrations of copper (I) were determined by comparison to a standard curve.

RAW264.7 macrophages = details: 25 mM DPI, data not shown
[2] = tested on: urinary pathogenic E. coli strain; test: In vitro growth of urinary pathogenic E. coli strain; type: cell-based; details: at levels that inhibit yersiniabactin biosynthesis
Description: (§2) The ability of PAS to inhibit yersiniabactin biosynthesis in a urinary pathogenic E. coli strain was examined.

[3] = tested on: yersiniabactin biosynthesis; test: Inhibition of yersiniabactin biosynthesis in a urinary pathogenic E. coli strain; type: cell-based
Description: as §2

UTI89ΔybtS = test: Copper mediated cytotoxicity assay, yersiniabactin-deficient strain; type: cell-based, E. coli
Experimental: as §1

[4] = Superoxide dismutase (SOD) activity, xanthine/xanthine oxidase WST-1 formazan assay; type: biochemical; details: for superoxide dismutase activity (in words) / SOD activity, percentage inhibition rate: WST-formazan assay, no added protein; for superoxide dismutase activity in the presence of protein: 1.0 mg/mL bovine serum albumin
Experimental: Reduction of WST-1 was monitored at 440 nm in a final volume of 100 μL. One unit of activity was defined as the amount of compound which blocked 50% WST-1 reduction under these conditions. […] To determine whether SOD activity is retained in the presence of protein, these experiments were repeated in the presence of 1.0 mg/mL bovine serum albumin (Sigma).

[5] = UV-Vis spectroscopy of metal interaction; type: physicochemical; details: purified HPTT with Fe (III) and Cu (II)
Description: At this point, it had been confirmed that HPTT is detectable in vivo in a model UPEC strain that makes yersiniabactin. FIG. 24 confirms that HPTT is detected in wildtype UT189 but not UT189 strains comprising deletions in the yersiniabactin synthesis pathway (ybtS and ybtE). Given that HPTT is being secreted outside the cell and that it is made in relatively high abundance, we wanted to see if HPTT could be performing a specific function for the bacteria, and not simply a transient intermediate along the way to Ybt (FIG. 24). Given that its structure is similar to yersiniabactin, a siderophore, we hypothesized that it could interact with metals. Using solid phase extraction and HPLC, HPTT was purified to homogeneity with no contaminants, as detectable by HPLC. The purified compound was used to look for interactions with iron and copper by UV-Vis spectroscopy.

[6] = tested on: E. coli clinical isolates; test: Antimicrobial susceptibility of clinical isolates by disk diffusion; type: cell-based; details: for resistant clinical isolates: 337 bacteriuric inpatient clinical isolates
Description: The samples were collected as part of a Washington University Institutional Review Board-approved prospective study of patients with E. coli bacteriuria (>5×10^4 colony forming units per milliliter) described by Marschall et al.^11 Strains without associated blood culture data were not excluded from this study. Briefly, clinical isolates were collected from male and female patients with significant bacteriuria. Bacterial DNA was extracted using a QIAamp DNA mini kit (Qiagen, Valencia, Calif.). DNA probes for virulence genes were conducted as previously described^11, and the presence of these genes was determined by dot-blot hybridization using a microarray system as described elsewhere (Table 1). E. coli phylogenetic group was determined from hybridization results using the triple genotyping method of Clermont et al.^25 Antimicrobial susceptibility was determined using disk diffusion tests. Bacteriuria was defined as? 5×10^4 colony forming units (CFU)/mL in non-catheterized patients and ≧5×10^3 CFU/mL in catheterized patients, as well as by using the patients' documented urinary symptoms. Pyelonephritis was defined as the presence of flank pain and tenderness and/or fever; sepsis and sepsis-induced hypotension were defined using established clinical criteria. The Microbiology Laboratory at Barnes Jewish Hospital provided clinical antibiogram data.

Compound: O=C(O)c1cccc(O)c1O [DHB, 2,3-dihydroxybenzoic acid]
- effect on viability (UT189): minimal effect
- effect on copper (II) sulfate toxicity (UT189): enhances copper (II) sulfate toxicity
- reduction of copper (II) to copper (I) [1]: 93.1%

Compound: c1ccc2c(c1)[I+]c1ccccc1-2 [DPI, Diphenyleneiodonium]
- oxidative-burst activity (RAW264.7 macrophages): decreased oxidative-burst activity to background levels
- phagocytosis (RAW264.7 macrophages): without any gross defect in phagocytosis

Compound: Nc1ccc(C(=O)O)c(O)c1 [PAS, Para-aminosalicylic acid]
- inhibition of in vitro growth [2]: did not inhibit in vitro growth; also recorded: without inhibiting growth
- inhibition of yersiniabactin biosynthesis [3]: selectively inhibits yersiniabactin biosynthesis

Compound: CC(C)(C1=N[C@@](C)(C(=O)O)CS1)[C@H](O)[C@@H]1CSC([C@H]2CSC(c3ccccc3O)=N2)N1 (stereo partly drawn) [apo-yersiniabactin]
- cytoprotection from copper toxicity (UTI89ΔybtS; added in 1.5-fold molar excess over copper (II) sulfate): restores growth to untreated wild type levels
- effect on bacterial viability (UTI89ΔybtS; in the absence of copper): negligible effect
- decrease in viable cells compared to wild type (UTI89ΔybtS; purified apo-Ybt added with 10 μM copper sulfate): 0.024 log
- superoxide dismutase activity (in words) [4]: did not demonstrate superoxide dismutase activity and not
- copper (I) bathocuproine signal ([1]; apo-Ybt added before enterobactin or DHB, listed as Apo-yersiniabactin): prevents catechol-dependent reduction
- copper (I) bathocuproine signal ([1]; apo-Ybt added before enterobactin or DHB, listed as apo-Ybt): almost completely blocked
- copper (I) bathocuproine signal ([1]; enterobactin or DHB added before apo-Ybt): restored the copper (I) signal

Compound: O=S(=O)([O-])[O-].[Cu+2] [copper sulfate, copper (II) sulfate]
- decrease in bacterial viability (UTI89ΔybtS; 10 μM copper sulfate alone): > 3 log CFU/mL
- superoxide dismutase activity in the presence of protein [4]: suppressed
- SOD activity, percentage inhibition rate [4]: 33.8%
- superoxide dismutase activity (in words) [4]: did not demonstrate any superoxide dismutase like activity
- reduction of viable colonies (UT189; 10 μM copper (II) sulfate alone): 2.5 log

Compound: O=C(N[C@H]1COC(=O)[C@@H](NC(=O)c2cccc(O)c2O)COC(=O)[C@@H](NC(=O)c2cccc(O)c2O)COC1=O)c1cccc(O)c1O [enterobactin]
- effect on viability (UT189): minimal effect
- effect on copper (II) sulfate toxicity (UT189): enhances copper (II) sulfate toxicity
- reduction of copper (II) to copper (I) [1]: 84.7%

Compound: [Cl][Fe]([Cl])[Cl] [ferric chloride]
- superoxide dismutase activity (in words) [4]: did not demonstrate any superoxide dismutase like activity

Compound: CC(C)(C1=N[C@@](C)(C(=O)O)CS1)[C@H](O)[C@@H]1CSC([C@H]2CSC(c3ccccc3O)=N2)[N-]1.[Fe] (stereo partly drawn) [ferric complexes of yersiniabactin]
- SOD activity, percentage inhibition rate [4]: 41.4%
- superoxide dismutase activity (in words) [4]: demonstrated SOD-like activity

Compound: bovine Cu/Zn SOD: bovine Cu/Zn superoxide dismutase used as a standard (Sigma S-7571)
- superoxide dismutase activity (in words) [4]: completely inhibited superoxide anion formation

Compound: copper (II)-salicylate
- superoxide dismutase activity in the presence of protein [4]: suppressed; also recorded: quenched
- SOD activity, percentage inhibition rate [4]: 61.6%

Compound: hydroxphenyl-thiazolinyl-thaizolinyl [HPTT]
- UV-Vis spectra in the presence of metal [5]: red-shifted

Compound: trimethoprim-sulfamethoxazole [TMP/S]
- resistant clinical isolates [6]: 29%
- resistant clinical isolates ([6]; listed as trimethoprim/sulfamethoxazole (TMP/S)): 96 (29) total (%)
- susceptibility ([6]; fyuA+iroN siderophore genotype (CI community 3, BC 1+3)): highly susceptible
- association with phenotypic resistance ([6]; fyuA+iucD strategists (CI community 2, BC 1+2)): moderately with TMP/S resistance
